Laboratory results taken from patent US20220289679A1, “HETEROCYCLIC COMPOUND” (Takeda Pharmaceutical Company Limited, priority 2019, published 2022).

These compounds were tested against T1, human GCS (glucosylceramide synthase) (Homo sapiens, UniProt Q16739) (assay: Glucosylceramide Synthase (GCS) Assay). Conditions: test compound 10 μM; microsome fraction of Expi293F cells expressing human GCS; 1.7 μM UDP-glucose, 3 μM C8 ceramide; room temperature 60 min; C8 glucosylceramide by Rapidfire MS/MS; read-out: GCS enzyme inhibitory rate at 10 μM (%).
T1 construct: made in house; host or cells: Expi293F cells (transient expression; microsome fraction)
T1 sequence (Q16739 1-394): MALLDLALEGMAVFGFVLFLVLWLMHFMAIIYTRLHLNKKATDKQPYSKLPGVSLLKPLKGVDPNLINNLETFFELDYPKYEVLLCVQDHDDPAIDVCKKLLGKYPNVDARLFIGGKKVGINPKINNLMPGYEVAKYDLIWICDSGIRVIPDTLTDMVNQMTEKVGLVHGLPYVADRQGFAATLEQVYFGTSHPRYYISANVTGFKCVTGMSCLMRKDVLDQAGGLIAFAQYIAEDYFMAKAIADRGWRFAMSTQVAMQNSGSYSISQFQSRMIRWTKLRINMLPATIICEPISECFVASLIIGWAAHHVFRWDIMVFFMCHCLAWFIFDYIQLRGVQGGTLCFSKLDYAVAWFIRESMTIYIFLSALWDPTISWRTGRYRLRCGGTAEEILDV
Format: biochemical
Experimental: In enzyme assay, a microsome fraction obtained by transient expression by Expi293F™ cells (catalog number: A14527, Thermo Fisher Scientific) was used as a glucosylceramide synthase source. Liposomal C8 ceramide and UDP-glucose were used as substrates. For each substrate concentration, 1.7 μM UDP-glucose, which is equal to the Km value, and 3 μM C8 ceramide were used. After the enzymatic reaction, the analysis was performed with Rapidfire MS/MS (API-4000™, SCIEX), and C8 glucosylceramide was quantified to evaluate the inhibitory activity of the test compound against glucosylceramide synthase activity.
PcDNA3.3TOPO vector (catalog number: K830001, Thermo Fisher Scientific) into which the human GCS gene was inserted was introduced into Expi293F™ Cells (catalog number: A14527, Thermo Fisher Scientific) by using ExpiFectamine™ 293 Transfection Kit (catalog number: A14525, Thermo Fisher Scientific). The cultured cells were dissolved in D-PBS (catalog number: 048-29805, Fuji Film Wako Pure Chemical Industries, Ltd.) containing 1 mM PMSF, and the solution was allowed to stand on ice for 30 minutes, and then subjected to cell disruption (homogenized). The disruption solution was centrifuged at 10,000×g for 20 minutes at 4° C., and the obtained supernatant was centrifuged at 142,400×g for 60 minutes at 4° C. The obtained precipitate was resuspended in a D-PBS solution containing 1 mM PMSF, and homogenized again to prepare as a microsome fraction. Protein quantification was performed by the CBB method.
A 1 mM compound solution prepared by dissolving the test compound in DMSO was added to a 384-well plate by 100 nL so that the final concentration of the test compound was 10 μM. Next, a substrate solution consisting of 3.4 μM UDP-glucose and 6 μM C8 ceramide was added by 5 μL, followed by an enzyme solution consisting of a 25 μg/mL microsome fraction by 5 μL. C8 ceramide was prepared from liposomes composed of 15 mol % C8 ceramide and 85 mol % dioleoyl phosphatidylcholine (1,2-dioleoyl-sn-glycero-3-phosphocholine: DOPC). The enzymatic reaction was carried out in a solution consisting of 20 mM tris-hydrochloric acid buffer (pH 7.5), 0.01% Tween 20, 0.01% bovine serum albumin and 1 mM dithiothreitol at room temperature for 60 min. Then, a solution consisting of 75% isopropanol and 1% formic acid containing 0.25 μM N-Octadecanoyl-D35-psichosine (catalog number: 1914, Matreya) as an internal standard substance was added by 60 μL to stop the enzymatic reaction. 5 μL of the centrifugal supernatant of the obtained reaction product was analyzed by Rapidfire MS/MS (Agilent Technologies) using API-4000™ (SCIEX), and the C8 glucosylceramide was quantified to evaluate the inhibitory activity of the test compound against the glucosylceramide synthase activity. The inhibitory activity of the test compound was evaluated when the C8 glucosylceramide level in the enzyme-free solution was considered as 100% inhibitory and the enzyme activity of the DMSO group in the absence of the compound was considered as 0% inhibitory.

| inhibition at 10 µM [%] | SMILES |
| --- | --- |
| 88 | O=C(Nc1ccn(CC2CC2(F)F)n1)c1cccn(-c2ccc(F)cc2OCC(F)(F)F)c1=O (racemic) [Example 55, rac-N-{1-[(2,2-difluorocyclopropyl)methyl]-1H-pyrazol-3-yl}-1-[4-fluoro-2-(2,2,2-trifluoroethoxy)phenyl]-2-oxo-1,2-dihydropyridine-3-carboxamide] |
| 96 | O=C(Nc1ccc(C(O)C2CC2)nc1)c1cccn(-c2ccc(F)cc2OCC(F)(F)F)c1=O (racemic) [Example 75, rac-N-{6-[cyclopropyl(hydroxy)methyl]pyridin-3-yl}-1-[4-fluoro-2-(2,2,2-trifluoroethoxy)phenyl]-2-oxo-1,2-dihydropyridine-3-carboxamide] |
| 98 | O=C(Nc1ccc(C(O)C2CC2)nc1)c1cccn(-c2ccccc2OCC(F)(F)F)c1=O (racemic) [Example 76, rac-N-{6-[cyclopropyl(hydroxy)methyl]pyridin-3-yl}-2-oxo-1-[2-(2,2,2-trifluproethoxy)phenyl]-1,2-dihydropyridine-3-carboxamide] |
| 90 | CC(O)(c1ccc(NC(=O)c2cccn(-c3ccnnc3OCC(F)(F)F)c2=O)cn1)C(F)(F)F (racemic) [Example 121, rac-2-oxo-1-[3-(2,2,2-trifluoroethoxy)pyridazin-4-yl]-N-[6-(1,1,1-trifluoro-2-hydroxypropan-2-yl)pyridin-3-yl]-1,2-dihydropyridine-3-carboxamide] |
| 99 | CC(O)c1ccc(NC(=O)c2ccnn(-c3ccccc3OCC(F)(F)F)c2=O)cc1 (racemic) [Example 138, rac-N-[4-(1-hydroxyethyl)phenyl]-3-oxo-2-[2-(2,2,2-trifluoroethoxy)phenyl]-2,3-dihydropyridazine-4-carboxamide] |
| 99 | Cc1cc(C(=O)Nc2ccc(C(C)O)cc2)c(=O)n(-c2ccccc2OCC(F)F)n1 (racemic) [Example 139, rac-2-[2-(2,2-difluoroethoxy)phenyl]-N-[4-(1-hydroxyethyl)phenyl]-6-methyl-3-oxo-2,3-dihydropyridazine-4-carboxamide] |
| 87 | CC(O)c1ccc(NC(=O)c2ccnn(-c3ccccc3OCC(F)(F)F)c2=O)nc1 (racemic) [Example 140, rac-N-[5-(1-hydroxyethyl)pyridin-2-yl]-3-oxo-2-[2-(2,2,2-trifluoroethoxy)phenyl]-2,3-dihydropyridazine-4-carboxamide] |
| 100 | O=C(Nc1ccc(C2CCCO2)cc1)c1ccnn(-c2ccccc2OCC(F)F)c1=O (racemic) [Example 144, rac-2-[2-(2,2-difluoroethoxy)phenyl]-3-oxo-N-[4-(oxolan-2-yl)phenyl]-2,3-dihydropyridazine-4-carboxamide] |
| 99 | O=C(Nc1ccc(C2CCOC2)cc1)c1ccnn(-c2ccccc2OCC(F)F)c1=O (racemic) [Example 145, rac-2-[2-(2,2-difluoroethoxy)phenyl]-3-oxo-N-[4-(oxolan-3-yl)phenyl]-2,3-dihydropyridazine-4-carboxamide] |
| 99 | CC(C)(O)c1ccc(NC(=O)c2cn(C3CCOC3)nc(-c3ccccc3OCC(F)F)c2=O)cc1 (racemic) [Example 193, rac-6-[2-(2,2-difluoroethoxy)phenyl]-N-[4-(2-hydroxypropan-2-yl)phenyl]-5-oxo-2-(oxolan-3-yl)-2,5-dihydropyridazine-4-carboxamide] |
| 100 | O=C(Nc1ccc(C(O)(C(F)F)C(F)F)nc1)c1cn(C2CCOC2)nc(-c2ccccc2OCC(F)F)c1=O (racemic) [Example 195, rac-6-[2-(2,2-difluoroethoxy)phenyl]-5-oxo-2-(oxolan-3-yl)-N-[6-(1,1,3,3-tetrafluoro-2-hydroxypropan-2-yl)pyridin-3-yl]-2,5-dihydropyridazine-4-carboxamide] |
